Columns and labels:
[1] = tested on: Escherichia coli (ATCC number: 25922); assay: Phototoxicity test (photodynamic inactivation, CFU/ml by Miles and Misra); type: cell-based; settings: E. coli; irradiation at 10.5 J/cm^2 (50 mW/cm^2, 210 sec, 390-500 nm); incubation 10 min or 30 min; CFU/ml after 24 h
Experimental: (§1) A sample of the bacterial strain Staphylococcus aureus (ATCC number: 25923) or Escherichia coli (ATCC number: 25922) was taken from a cryogenically frozen culture, isolated on Müller-Hinton agar plates and cultivated under aerobic conditions at 37° C. in an overnight culture. Thereafter, 5 ml of Müller-Hinton liquid medium were inoculated with a smear of the bacterial culture (single colony) and incubated at 37° C. overnight. The bacterial suspension thus obtained was centrifuged at 2500 rpm for 10 min and the bacterial pellet obtained was resuspended in 5 ml of sterile PBS. The optical density of the bacterial suspensions for the phototoxicity tests was OD600nm=0.6, which corresponds to a bacteria count of ˜[…] bacteria per ml. The biochemical analysis and resistance determination of the bacteria were conducted with the VITEK2 system according to the M100-S14 guidelines from the NCCLS (2004).
(§2) 200 μl of a bacterial suspension (bacterial density: 10^8-10^12/ml) were incubated with 200 μl of each of various concentrations of the photosensitizers to be tested at room temperature for 10 min or 30 min. Thereafter, the bacteria were washed twice with distilled water and resuspended in 200 μl of distilled water, and the entire volume was transferred to a 96-well microtiter plate and then irradiated. The photosensitizers used were dissolved in distilled water and various dilution series were prepared (0 μM, 1 μM, 10 μM, 100 μM).
(§3) For sensitization, the Omnicure Series 2000 lamp (Photonics Solutions Inc., Edinburgh, UK) was used, which emits light from a range from 390 nm to 500 nm and has emission maxima Emax at 405 nm and 436 nm. The power applied in each case was 50 mW/cm^2.
(§4) Irradiated and unirradiated samples were used as controls. Likewise run were bacterial suspensions incubated only with photosensitizer (dark control).
(§5) The determination of the colony-forming units (CFU) per ml was conducted by the method published by Miles and Misra (Miles, A A; Misra, S S, Irwin, J O (1938 November). “The estimation of the bactericidal power of the blood.”. The Journal of hygiene 38 (6): 732-49). For this purpose, serial dilutions from 10^−2 to 10^−9 of the corresponding bacterial suspension were prepared. 3×20 μl of each of the corresponding bacterial dilutions were then dripped onto Müller-Hinton plates and incubated at 37° C. for 24 h. Thereafter, the number of surviving colony-forming units (CFU) was determined. Each of the experiments was repeated three times.
(§6) The effectiveness of phototoxicity with respect to bacteria after irradiation was defined according to the following guidelines for hand hygiene in the health sector (Boyce, J. M., and D. Pittet. 2002. Guideline for Hand Hygiene in Health-Care Settings: recommendations of the Healthcare Infection Control Practices Advisory Committee and the HICPAC/SHEA/APIC/IDSA Hand Hygiene Task Force. Infect Control Hosp Epidemiol 23: p. 3-40): • reduction in the CFU/ml by 1 log10 stage≙90% effectiveness • reduction in the CFU/ml by 3 log10 stages≙99.9% effectiveness • reduction in the CFU/ml by 5 log10 stages≙99.999% effectiveness
(§7) For effective inactivation, the decrease of ≥3 log10 stages can therefore be adopted, and S. aureus and E. coli were chosen as examples of representatives from the group of the Gram-positive and Gram-negative bacteria (see Boyce J. M and D. Pittet 2009).

[2] = tested on: Staphylococcus aureus (ATCC number: 25923); assay: as above; type: cell-based; settings: S. aureus; irradiation at 10.5 J/cm^2 (50 mW/cm^2, 210 sec, 390-500 nm); incubation 10 min or 30 min; CFU/ml after 24 h
Experimental: as §1, §2, §3, §4, §5, §6, §7

Row | SMILES | Required concentration to achieve a reduction by ≥3 log10 stages (decrease by 99.9%) [1] | Required concentration to achieve a reduction by ≥3 log10 stages (decrease by 99.9%) [2] [μM]
1 | COCCn1c2nc(=O)n(CCNC(=N)N)c(=O)c-2nc2cc(C)c(C)cc21 [FL-04] | >100^(*^) μM | 50
2 | COCCn1c2nc(=O)n(CCN)c(=O)c-2nc2cc(C)c(C)cc21 [FL-03] | >100^(*^) μM | 10
3 | Cc1cc2nc3c(=O)[nH]c(=O)nc-3n(CCOCCOCCN)c2cc1C [FL-05] | >100^(*^) μM | 100
4 | Cc1cc2nc3c(=O)[nH]c(=O)nc-3n(CCN)c2cc1C [FL-01] | 10 μM | 10
